Literature values, collected in patent US20120015899A1 (priority 2008, published 2012).

Which pKa does the source give for `Cl.Nc1ccn([C@@H]2O[C@H](CO)[C@@H](O)C2(F)F)c(=O)n1` [Gemcitabine, Cytidine, 2′-deoxy-2′,2′-difluoro-, monohydrochloride] here?
The pKa was 3.58.
